In patent publication US12102643B2, “Aqueous pharmaceutical formulation of hydrocortisone sodium phosphate and monothioglycerol” (ANTARES PHARMA, INC., priority 2022, dated 2024):

Tests used:
[1] = Forced degradation of hydrocortisone sodium phosphate API under stress conditions (0.1 N HCl, 0.1 N NaOH, dry heat); format: physicochemical; settings: 3 stress conditions: 0.1 N HCl, qualitative
Protocol: To develop this method, Hydrocortisone sodium phosphate API was kept under stress conditions. These stress conditions included treatment with 0.1 N HCl, 0.1 N NaOH and dry heat. This was performed to investigate the nature of API and its compatibility with the stress conditions. It also helped generate degradation products to assess the specificity of the HPLC method under development. Information on degradation products and the conditions used to generate them was used to optimize the method for better resolution of such degradation products on chromatogram. FIGS. 3A-3C show chromatograms of HCP under stress conditions.
The proportions in which the degradants formed depended on the stress condition. Stress studies performed on the API were done for qualitative purpose only.

[2] = Room temperature stability of crystalline as compared to amorphous drug substance (water content, Karl Fischer); format: physicochemical; settings: for Assay / Total Impurities: Room temperature
Description: The Drug Substance (DS) Hydrocortisone Sodium Phosphate (HSP) is a sodium salt of phosphate ester of hydrocortisone. The high-water solubility of HSP enables the development of aqueous injectable solutions. The DS meets the requirements of USP monograph, “Hydrocortisone sodium phosphate, USP,” except for loss on drying (LOD) specification, instead the Karl Fischer method is used to test water content which meets the British Pharmacopoeia specification. This is because the crystalline form obtained through the manufacturing process is a crystalline hydrate. To meet the USP LOD specification of NMT 5%, the manufacturing process would need to involve a lyophilization step which leads to the formation of an amorphous form of HSP. […] The water content test method utilizes the British Pharmacopoiea (BP) HSP monograph semi-micro water content method instead of the less specific USP HSP monograph water content Loss on Drying method. […]

[3] = Genotoxicity assessment (ICH M7)
[4] = Stability study of HCP prototype formulations in PFS at 25° C. and 40° C. (appearance, pH, assay and related substances by stability indicating HPLC); settings: accelerated storage 40° C., effect of pH

Assay ([2]; Time 0) [%]	Total Impurities ([2]; Time 0) [%]	Assay ([2]; Time 3 mo.) [%]	Total Impurities ([2]; Time 3 mo.) [%]	Assay ([2]; Time 6 mo.) [%]	Total Impurities ([2]; Time 6 mo.) [%]	Compound	further results
						Hydrocortisone sodium phosphate	forced degradation outcome [1]: formation of Hydrocortisone, other common degradants
97.8	0.20	99.0	1.1	96.5	1.5	C[C@]12CCC(=O)C=C1CC[C@@H]1[C@@H]2[C@@H](O)C[C@@]2(C)[C@H]1CC[C@]2(O)C(=O)COP(=O)([O-])[O-].[Na+].[Na+]	
100.9	0.00	101.4	0.06	99.5	0.00	C[C@]12CCC(=O)C=C1CC[C@@H]1[C@@H]2[C@@H](O)C[C@@]2(C)[C@H]1CC[C@]2(O)C(=O)COP(=O)(O)O [Hydrocortisone Sodium Phosphate]	
						C[C@]12CCC(=O)C=C1CC[C@@H]1[C@@H]2[C@@H](O)C[C@@]2(C)[C@H]1CC[C@]2(O)C(=O)COP(=O)(O)O [Hydrocortisone sodium phosphate]	genotoxicity assessment [3]: not a genotoxic product; susceptibility to hydrolysis [4]: prone to general acid-catalyzed hydrolysis at pH<7.5
						C[C@]12CCC(=O)C=C1CC[C@@H]1[C@@H]2[C@@H](O)C[C@@]2(C)[C@H]1CC[C@]2(O)C(=O)COP(=O)(O)O [hydrocortisone sodium phosphate]	hygroscopicity ([2]; room temperature): highly hygroscopic; stability compared to crystalline form ([2]; room temperature): not stable as compared to crystalline form
